Drawing on US6559161B1, “Cytotoxic pyrido[2,3,4-ki]acridine derivatives, their preparation and their therapeutic use” (Universidad de Barcelona, priority 1999, dated 2003), this text covers IC50 and melting point for three molecules.

Structures are written as SMILES. Where two headings read alike, the source gives them in different places.

Data set [1] has as its system HT-29 (ATCC HTB-38, human colon carcinoma). As to the kind of experiment: cytotoxicity, growth inhibition of HT-29 cells, Crystal Violet staining. It counts as cell-based. As to conditions: approximate IC50, three days of incubation at 37° C. The text has this: (§1) The antitumour activity of the compounds of the present invention has been detected in vitro by culturing the tumour cells following the methodology described in Bergeron et al (1984), and by Schroeder et al (1981). Activity against different tumours as mouse lymphoma, human NSC lung carcinoma, human melanoma and human colon carcinoma has been observed.
(§2) Biological activity: cells were maintained in logarithmic phase of growth in Eagle's Minimum Essential Medium, with Earle's Balanced Salts, with 2.0 mM L-glutamine, with non-essential amino acids, without sodium bicarbonate (EMEM/neaa); supplemented with 10% Fetal Calf Serium (FCS), 10^−2 M sodium bicarbonate and 0.1 g/l penicillin-G+streptomycin sulfate.
(§3) The tumour cell lines employed have been P-388D1 (ATCC CCL-46, suspension culture of a lymphoid neoplasm from DBA/2 mouse), A549 (ATCC CCL-185, monolayer culture of a human lung carcinoma), HT-29 (ATCC HTB-38, monolayer culture of a human colon carcinoma) and SK-MEL-28 (ATCC HTB-72, monolayer culture of a human melanoma).
(§4) A549, HT-29 and SK-MEL-28 were seeded into 16 mm wells at 2×10^4 cells per well in 1 ml aliquots of MEM 10FCS containing the indicated concentration of drug. A separate set of cultures without drug and was seeded as control growth to ensure that cells remained in exponential phase of growth. All determinations were carried out in duplicate. After three days of incubation at 37° C., 10% CO2 in a 98% humid atmosphere, the wells were stained with 0.1% Crystal Violet. An approximate IC50 was determined by comparing the growth in wells with drug to the growth in wells control.

The subject of data set [2] is A549 (ATCC CCL-185, human lung carcinoma). As to the kind of experiment: cytotoxicity, growth inhibition of A549 cells, Crystal Violet staining. In kind it is cell-based. As to conditions: approximate IC50, three days of incubation at 37° C., read-out: IC50 (μM) A549 ATCC-CCL-L-185.
Excerpt: as §1, §2, §3, §4

The test system of data set [3] is SK-MEL-28 (ATCC HTB-72, human melanoma). The data set can be described thus: cytotoxicity, growth inhibition of SK-MEL-28 cells, Crystal Violet staining. It counts as cell-based. The following applies: approximate IC50, three days of incubation at 37° C.
Excerpt: as §1, §2, §3, §4

The test system of data set [4] is P-388D1 (ATCC CCL-46, lymphoid neoplasm from DBA/2 mouse). As to the kind of experiment: cytotoxicity, growth inhibition of P-388D1 cells in culture. It counts as cell-based. The following applies: approximate IC50, three days of incubation at 37° C., growth vs control wells.
Excerpt: as §1, §2, §3
P-388D1 cells were seeded into 16 mm wells at 1×10^4 cells per well in 1 ml aliquots of MEM 5FCS containing the indicated concentration of drug. A separate set of cultures without drug was seeded as control growth to ensure that cells remained in expotential phase of growth. All determinations were carried out in duplicate. After three days of incubation at 37° C., 10% CO2 in a 98% humid atmosphere, an approximate IC50 was determined by comparing the growth in wells with drug to the growth in wells control.

As usually defined, the IC50 is the concentration that gives 50% inhibition. Regarding `COc1ccc2c3c(c4ccccc4nc13)C=CN2` [Example 1, 3H-6-Methoxypyrido[2,3,4-kl]acridine], the 50% inhibitory concentration (IC50) in data set [1] stood at 0.5 µM; in data set [2] it was 0.05 µM; in data set [3], 0.05 µM; in data set [4] it was 0.5 µM.

A word on the melting point: it is the temperature, or range, at which the solid turns liquid. Molecule `COc1cc([N+](=O)[O-])c2c3c(c4ccccc4nc13)C=CN2` [Example 3, 6-Methoxy-4-nitro-3H-pyrido[2,3,4-kl]acridine] returned a melting point of 220 to 223 °C. This molecule also had an IC50 in data set [1] (Homo sapiens, HT-29, 72 h) of 0.34 µM. Also, the concentration for half-maximal inhibition (IC50) in data set [2] (Homo sapiens, A549, 72 h) was found to be 0.03 µM. In data set [3] (Homo sapiens, SK-MEL-28, 72 h), this molecule returned a 50% inhibitory concentration (IC50) of 0.03 µM. Moreover, in data set [4] (Mus musculus, P388D1, 72 h), the half-inhibitory concentration (IC50) was determined as 0.34 µM.

As to `COc1cc(NC(C)=O)c2c3c(c4ccccc4nc13)C=CN2` [Example 4, 4-Acetylamino-6-methoxy-3H-pyrido[2,3,4-kl]acridine], the melting point was 128 to 132 °C. Further, the IC50 in data set [1] (Homo sapiens, HT-29, 72 h) came out at 1.64 µM. In data set [2] (Homo sapiens, A549, 72 h), the IC50 was found to be 0.03 µM. This molecule gave a half-maximal inhibitory concentration (IC50) in data set [3] (Homo sapiens, SK-MEL-28, 72 h) of 0.03 µM. The molecule further displayed a half-maximal inhibitory concentration (IC50) in data set [4] (Mus musculus, P388D1, 72 h) of 1.64 µM.
